The data set can be described thus: method code G-GLC, from Herzke, D.; Rotard, W. (1999). Physical-chemical properties of polyfluorinated dibenzodioxins and dibenzofurans. Organohalogen Compounds, 41, 171-174.

Regarding `Fc1cc2c(cc1F)Oc1c(F)c(F)c(F)c(F)c1O2`, the logP was 3.8.
The compound `Clc1ccc2c(c1)Oc1ccc(Cl)cc1O2` showed a logP of 5.7.
Then `Fc1cc2c(cc1F)Oc1cc(F)c(F)cc1O2`, with 3.5.
`Fc1cc2c(c(F)c1F)Oc1c(F)cc(F)c(F)c1O2` returned a logP of 3.1.
To `Fc1cc2c(oc3ccccc32)c(F)c1F` belongs 3.4; to `Clc1ccc2oc3ccccc3c2c1Cl`, 5.6; to `Clc1c(Cl)c(Cl)c2c(c1Cl)Oc1c(Cl)c(Cl)c(Cl)c(Cl)c1O2`, 8.2.
For `Fc1cc2oc3c(F)c(F)c(F)c(F)c3c2cc1F`, the logP came to 4.
Then `Fc1ccc2c(c1)Oc1c(F)c(F)c(F)c(F)c1O2`, with 3.6; and `Fc1c(F)c(F)c2c(c1F)Oc1c(F)c(F)c(F)c(F)c1O2`, with 3; and `Fc1ccc2oc3c(F)c(F)c(F)c(F)c3c2c1F`, with 4.4.
To `Clc1cc2c(oc3ccccc32)c(Cl)c1Cl` belongs 6.4; to `Fc1ccc2c(c1)Oc1ccc(F)cc1O2`, 3.3; to `Fc1cc(F)c2c(c1F)Oc1c(F)c(F)cc(F)c1O2`, 3.1.

The term logP denotes the decadic logarithm of the partition coefficient of the neutral form, usually between octanol and water. A higher logP goes with higher lipophilicity.
